From US20130184273A1, “BICYCLIC PYRIMIDINES” (Bayer Intellectual Property GmbH, priority 2010, published 2013)

What was measured:
[1] = molecular target: T1, His-tagged human recombinant kinase full-length Akt2 (Homo sapiens, UniProt P31751); test: Akt2 kinase assay (TR-FRET); assay type: biochemical; conditions: 10 μM ATP, 60 min at 22° C., read-out: Akt2, median IC50
T1 construct: His-tagged human recombinant kinase full-length Akt2; His; purchased Invitrogen PV 3975; host or cells: insect cells
T1 sequence (P31751 whole entry): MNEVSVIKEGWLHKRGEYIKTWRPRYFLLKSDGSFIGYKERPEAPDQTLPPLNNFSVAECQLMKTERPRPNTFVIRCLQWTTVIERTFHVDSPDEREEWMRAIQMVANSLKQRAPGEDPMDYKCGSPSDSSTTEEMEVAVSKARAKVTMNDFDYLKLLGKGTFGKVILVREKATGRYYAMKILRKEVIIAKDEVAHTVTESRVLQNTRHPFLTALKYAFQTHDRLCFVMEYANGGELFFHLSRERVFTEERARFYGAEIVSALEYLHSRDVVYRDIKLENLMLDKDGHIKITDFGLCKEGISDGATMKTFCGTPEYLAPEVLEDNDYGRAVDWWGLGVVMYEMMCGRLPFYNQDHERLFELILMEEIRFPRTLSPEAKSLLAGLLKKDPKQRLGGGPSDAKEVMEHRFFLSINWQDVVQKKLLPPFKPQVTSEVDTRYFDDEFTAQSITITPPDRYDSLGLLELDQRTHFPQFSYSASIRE
Method in brief: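 TR-FRET read-out (anti-phosphoserine antibody, Eu-labelled anti-mouse IgG, streptavidin-XL665) of a 60 min, 22 °C reaction using 1 μM biotinylated peptide and 10 μM ATP. Enzyme: PDK1-activated full-length His-Akt2 from insect cells, about 0.2 ng/μl, with 15 min compound pre-binding; data normalised to no-inhibitor and no-enzyme controls.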

[2] = system: KPL-4 breast cancer cell line; test: Tumor cell proliferation assay (CellTiter-Glo); assay type: cell-based; conditions: KPL4, 72 h drug exposure
Method: Compounds were tested in a cell-based assay that measures the capacity of the compounds to inhibit tumour cell proliferation following a 72 h drug exposure. Cell viability is determined using CellTiter-Glow® (CTG, Promega, cat #G7571/2/3). The CellTiter-Glo® Luminescent Cell Viability Assay is a homogeneous method to determine the number of viable cells in culture. Detection is based on using the luciferase reaction to measure the amount of ATP from viable cells. The amount of ATP in cells correlates with cell viability. Within minutes after a loss of membrane integrity, cells lose the ability to synthesize ATP, and endogenous ATPases destroy any remaining ATP; thus the levels of ATP fall precipitously.
Cells were plated at 3000-5000 cells/well (depending on the cell lines) in 90 μL growth medium on MTPs (Corning; #3603, black plate, clear flat bottom). For each cell line assayed, cells were plated onto a separate plate for determination of […] at t=0 hour and t=72 hour time points. Following overnight incubation at 37° C., chemiluminescence values for the t=0 samples were determined after adding 10 μl medium and 100 μl CTG solution according to manufacture protocol. Plates for the t=72 hour time points were treated with compounds diluted into growth medium at ten times final concentration added in 10 μL to the cell culture plate. Cells were then incubated for 72 hours at 37° C. Chemiluminescence values for the t=72 hour samples were determined. […] Experiments were controlled using a reference compound as standard.

Row | Structure (SMILES) | IC50 [1] | IC50 [2]
1 | Cc1nc2nc(-c3ccc(C4(N)CCC4)cc3)c(-c3ccccc3)cn2n1 [Example 1-0, 1-[4-(2-methyl-6-phenyl-[1,2,4]triazolo[1,5-a]pyrimidin-5-yl)-phenyl]-cyclobutylamine] | 0.96 µM | 3.22 µM
2 | Cc1cn2cc(-c3ccccc3)c(-c3ccc(C4(N)CCC4)cc3)nc2n1 [Example 2-1, 1-[4-(2-Methyl-6-phenyl-imidazo[1,2-a]pyrimidin-7-yl)-phenyl]-cyclobutylamine] | 0.487 µM | 1.97 µM
3 | CS(=O)(=O)c1ccc(-c2cnc3nc(-c4ccc(C5(N)CCC5)cc4)c(-c4ccccc4)cn23)cc1 [Example 4-0, 1-{4-[3-(4-Methansulfonyl-phenyl)-6-phenyl-imidazo[1,2-a]pyrimidin-7-yl]-phenyl}-cyclobutylamine] | 0.299 µM | 1.27 µM
4 | NC1(c2ccc(-c3nc4ncc(-c5ccc(F)cc5)n4cc3-c3ccccc3)cc2)CCC1 [Example 6-0, 1-{4-[3-(4-Fluorophenyl)-6-phenyl-imidazo[1,2-a]pyrimidin-7-yl]-phenyl}-cyclobutylamine] | 0.681 µM | 2.54 µM
5 | NC1(c2ccc(-c3nc4ncc(-c5cn[nH]c5)n4cc3-c3ccccc3)cc2)CCC1 [Example 6-3, 1-{4-[6-Phenyl-3-(1H-pyrazol-4-yl)-imidazo[1,2-a]pyrimidin-7-yl]-phenyl}-cyclobutylamine] | 0.165 µM | 5.11 µM

The remaining compounds from weak to strong by IC50 [1], led by results:

Row | IC50 [1] | IC50 [2] | Structure (SMILES)
6 | 0.34 µM | 0.93 µM | Cn1cc(-c2nc3nc(-c4ccc(C5(N)CCC5)cc4)c(-c4ccccc4)cn3n2)cn1 [Example 5-2, 1-{4-[2-(1-methyl-1H-pyrazol-4-yl)-6-phenyl-[1,2,4]triazolo[1,5-a]pyrimidin-5-yl]-phenyl}-cyclobutylamine]
7 | 0.205 µM | 10 µM | NC(=O)c1cccc(-c2cnc3nc(-c4ccc(C5(N)CCC5)cc4)c(-c4ccccc4)cn23)c1 [Example 6-2, 3-{7-[4-(1-Amino-cyclobutyl)-phenyl]-6-phenyl-imidazo[1,2-a]pyrimidin-3-yl}-benzamide]
